# Laboratory results reported in patent US20150126467A1, “USE OF ALGINATE OLIGOMERS TO ENHANCE THE EFFECTS OF ANTIFUNGAL AGENTS” (AlgiIPharma AS, priority 2011, published 2015).
# Where two headings read alike, the source gives them in different places.
# System: Cryptococcus neoformans CCUG 23451
# Assay: Robotic MIC assay, Cryptococcus neoformans (Example 6)
# Type: cell-based
# Conditions: for MIC: Cryptococcus neoformans, read-out: Minimum Inhibitory Concentration (MIC)
# Description: Cryptococcus sp. was grown at 30° C. for 96 h on YM-agar. Spores and aerial mycelium was cut out from the agar, suspended in 1 ml YM-broth and dispersed with glass beads (1 mm) in a mini bead beater for 2 min. The suspension was added glycerol to 10% and frozen at −80° C. Each batch of frozen stock culture was then characterized in separate growth experiments using Mueller-Hinton and RPMI to determine the minimum amount of inoculum giving satisfactory growth after 48 h under the conditions relevant for the MIC assay. This inoculum procedure is used in order to reduce day to day variation in bioassays.
# Robotic minimum inhibitory concentration (MIC) assay was performed as follows. OligoG CF-5/20 was dissolved in medium (Mueller-Hinton, RPMI with 2% glucose, Sabouraud or YM) to 1.25 times of the desired assay concentrations (2, 6 and 10%). […].
# Two-fold serial dilutions of antifungal agents were made in medium with different concentrations of OligoG CF-5/20, and the solutions were placed in four parallel wells in Nunc 384-well micro plates (30 μl per well in Nunc 242757 microplates). A group of 8 wells with no addition of antifungal agents for each OligoG CF-5/20 concentration was included on each micro plate as growth reference. Each well in the 384-well assay plates was added 7.5 μl of the medium innoculated with frozen stock culture of the relevant strains.
# The microplates were placed in plastic bags and incubated without shaking at 34° C. The optical density at 600 nm in the microwells was measured after certain time points from 24 h to 96 h of incubation. […]
smiles,measurement,setting,value
"Clc1ccc(COC(Cn2ccnc2)c2ccc(Cl)cc2Cl)c(Cl)c1 (stereo not shown) [Miconazole, miconazole]",MIC,"CCUG23451, 72 h, RPMI 2% GLU, 0% OligoG, 72 hours",4 µg/mL
same,MIC,"CCUG23451, 72 h, RPMI 2% GLU, 2% OligoG, 72 hours",2 µg/mL
same,MIC,"CCUG23451, 72 h, RPMI 2% GLU, 6% OligoG, 72 hours",0.5 µg/mL
same,MIC,"CCUG23451, 72 h, Sabouraud, 0% OligoG, 72 hours",< 0.0156 µg/mL
same,MIC,"CCUG23451, 72 h, Sabouraud, 2% OligoG, 72 hours",0.0625 µg/mL
same,MIC,"CCUG23451, 72 h, Sabouraud, 6% OligoG, 72 hours",0.00781 µg/mL
same,MIC,"CCUG23451, 72 h, YM, 0% OligoG, 72 hours",0.5 µg/mL
same,MIC,"CCUG23451, 72 h, YM, 2% OligoG, 72 hours",0.5 µg/mL
same,MIC,"CCUG23451, 96 h, MH, 0% OligoG, 96 hours",1 µg/mL
same,MIC,"CCUG23451, 96 h, MH, 2% OligoG, 96 hours",0.125 µg/mL
same,MIC,"CCUG23451, 96 h, RPMI 2% GLU, 0% OligoG, 96 hours",4 µg/mL
same,MIC,"CCUG23451, 96 h, RPMI 2% GLU, 2% OligoG, 96 hours",2 µg/mL
same,MIC,"CCUG23451, 96 h, RPMI 2% GLU, 6% OligoG, 96 hours",1 µg/mL
same,MIC,"CCUG23451, 96 h, Sabouraud, 0% OligoG, 96 hours",0.0625 µg/mL
same,MIC,"CCUG23451, 96 h, Sabouraud, 2% OligoG, 96 hours",0.25 µg/mL
same,MIC,"CCUG23451, 96 h, Sabouraud, 6% OligoG, 96 hours",0.5 µg/mL
same,MIC,"CCUG23451, 96 h, YM, 0% OligoG, 96 hours",0.5 µg/mL
same,MIC,"CCUG23451, 96 h, YM, 2% OligoG, 96 hours",1 µg/mL
same,effect on MIC when OligoG is added to the medium,"media: RPMI with 2% glucose, MH, Sabouraud, YM",reduction in MIC in RPMI with glucose and in MH medium
